Measured values: the NIST ThermoML archive (doi:10.1021/je200668a)

Conditions: Liquid, Pulse Transmission

O [water]
Conditions | speed of sound [m/s]
318.1 K, 349600 kPa | 2061
318.1 K, 449800 kPa | 2181.8
318.11 K, 150100 kPa | 1787.1
318.11 K, 160100 kPa | 1802.4
318.11 K, 250600 kPa | 1930.2
318.12 K, 50400 kPa | 1623.1
318.12 K, 299900 kPa | 1996.4
318.12 K, 599100 kPa | 2350.3
318.12 K, 599600 kPa | 2346.3
318.12 K, 641800 kPa | 2388.1
318.13 K, 250400 kPa | 1930.2
318.13 K, 399600 kPa | 2121.7
318.14 K, 111200 kPa | 1725.7
318.14 K, 449700 kPa | 2182.1
318.14 K, 701800 kPa | 2454.2
318.15 K, 250000 kPa | 1930.6
318.15 K, 651000 kPa | 2405.8
318.16 K, 100 kPa | 1530.9
318.16 K, 401300 kPa | 2123.6
318.16 K, 549200 kPa | 2297.1
318.16 K, 559300 kPa | 2305.4
318.17 K, 50000 kPa | 1622.5
318.17 K, 499100 kPa | 2239.1
318.17 K, 499800 kPa | 2240.9
318.17 K, 549400 kPa | 2295.5
318.18 K, 450600 kPa | 2183.6
318.18 K, 702400 kPa | 2453.8
318.19 K, 200200 kPa | 1861.8
318.19 K, 499900 kPa | 2239.9
318.19 K, 651200 kPa | 2401.2
318.19 K, 701700 kPa | 2454.7
318.21 K, 99700 kPa | 1706.9
318.21 K, 602100 kPa | 2348.1
318.22 K, 150400 kPa | 1788.9
318.26 K, 49100 kPa | 1621.2
327.92 K, 641400 kPa | 2396.1
327.96 K, 560500 kPa | 2312.8
327.97 K, 701700 kPa | 2451.4
328.07 K, 550700 kPa | 2301.2
328.08 K, 109200 kPa | 1735.6
328.08 K, 350700 kPa | 2075.4
328.08 K, 499600 kPa | 2246.7
328.1 K, 150000 kPa | 1799.2
328.12 K, 100100 kPa | 1720.7
328.13 K, 200200 kPa | 1875.4
328.14 K, 50900 kPa | 1636.9
328.14 K, 300800 kPa | 2013.9
328.14 K, 450900 kPa | 2192
328.15 K, 300000 kPa | 2015.6
328.16 K, 159900 kPa | 1816
328.16 K, 351700 kPa | 2077.1
328.16 K, 399700 kPa | 2133
328.16 K, 499400 kPa | 2246.5
328.16 K, 601200 kPa | 2355.9
328.16 K, 601900 kPa | 2353.3
328.16 K, 700100 kPa | 2453.2
328.17 K, 50600 kPa | 1636.4
328.17 K, 200900 kPa | 1876.4
328.18 K, 250700 kPa | 1946.5
328.19 K, 100 kPa | 1541.1
328.19 K, 250700 kPa | 1947.4
328.21 K, 449800 kPa | 2189.2
328.21 K, 652700 kPa | 2406.9
328.22 K, 400100 kPa | 2137.3
328.27 K, 100 kPa | 1542.1
328.49 K, 99800 kPa | 1720.6
328.66 K, 650700 kPa | 2404.5
328.69 K, 300000 kPa | 2012.1
328.72 K, 200100 kPa | 1874.3
328.72 K, 400500 kPa | 2138.4
328.72 K, 551000 kPa | 2304.7
328.73 K, 50900 kPa | 1637.5
328.74 K, 449200 kPa | 2194.3
328.76 K, 100 kPa | 1543.9
328.76 K, 601300 kPa | 2354.9
328.77 K, 350900 kPa | 2076.6
328.77 K, 700400 kPa | 2453.8
328.83 K, 150100 kPa | 1799.9
328.9 K, 250100 kPa | 1944.4
328.92 K, 499400 kPa | 2250.4
337.66 K, 150000 kPa | 1810.9
337.69 K, 350500 kPa | 2086.1
337.69 K, 399100 kPa | 2142.9
337.75 K, 200500 kPa | 1886
337.8 K, 501100 kPa | 2260
337.85 K, 300700 kPa | 2024
337.87 K, 50100 kPa | 1643.6
337.95 K, 100500 kPa | 1731.6
338.02 K, 100 kPa | 1547.4
338.04 K, 601100 kPa | 2360.1
338.07 K, 650600 kPa | 2410.2
338.12 K, 451000 kPa | 2203.4
338.15 K, 250300 kPa | 1956.7
338.22 K, 549600 kPa | 2309.8
338.22 K, 700800 kPa | 2455.7
349.03 K, 601700 kPa | 2366
349.12 K, 500600 kPa | 2267.1
349.18 K, 49900 kPa | 1647.8
349.19 K, 100 kPa | 1549
349.22 K, 150700 kPa | 1818.4
349.22 K, 300400 kPa | 2029.7
349.27 K, 549200 kPa | 2313.8
349.28 K, 400700 kPa | 2153
349.3 K, 250900 kPa | 1965
349.32 K, 349800 kPa | 2091.6
349.35 K, 450800 kPa | 2209.4
349.41 K, 100400 kPa | 1737.3
349.59 K, 651400 kPa | 2412.5
349.68 K, 200700 kPa | 1892.8
349.72 K, 704500 kPa | 2445.1
